From patent US20200390754A1, “METHODS OF ADMINISTERING TOLPERISONE” (Neurana Pharmaceuticals, Inc., priority 2017, published 2020)

Legend:
[1] = tested on: male and female healthy volunteers; test: Karolinska Sleepiness Scale (KSS) test; format: in vivo, human; conditions: for Karolinska Sleepiness Scale (KSS): Tolperisone 450 mg, Cyclobenzaprine 30 mg, TID
Procedure: (§1) Subjects were dosed on the morning of Day 1.
The Karolinska Sleepiness Scale (KSS) was used to assess subjective level of sleepiness. This is a subject self-report measure of situational sleepiness and provides an assessment of alertness/sleepiness at a particular point in time. […] Subjects indicated their level of alertness versus sleepiness according to the following scale:
The KSS assessment was performed immediately before and after the simulated driving test Subjects self-reported their KSS assessments and the scores were recorded in the case report form.

[2] = tested on: male and female healthy volunteers; test: Country Vigilance-Divided Attention (CVDA) driving scenario on the CRCDS-MiniSim driving simulator; conditions: for Lane Exceedance (extent of driving outside of lanes) / Total Collisions: Tolperisone 450 mg, Cyclobenzaprine 30 mg, TID; for SDLP in driving simulation compared to placebo (words, FIG. 1): primary endpoint; for Reaction time on the divided attention test: Day 1, compared to placebo (placebo or cyclobenzaprine)
Procedure: Methodology: This was a randomized, placebo-controlled, multiple-dose 3-way cross-over study of the safety and cognitive effects of multiple doses of 150 mg tolperisone film-coated tablets (prepared according to methods described and referred to herein) administered three times daily (TID) in 31 male and female healthy volunteers. […] Subjects received 3 days of each treatment over three treatment periods. Subject participation was approximately 3 weeks as outpatients with 3 days each week as overnight clinic participants. Subjects were screened within 28 days prior to Treatment Period 1 (Visit 2) for eligibility for participation in the study. Subjects who met all inclusion/exclusion criteria were admitted to the clinic on Day 1 to be evaluated for continued eligibility. Subjects performed a practice trial with the driving simulator and the cognitive function test. Subjects were dosed on the morning of Day 1. Approximately one hour after the […] dose on Day 1, subjects were administered the cognitive test, followed by the driving simulator examination. On the morning of Day 2, prior to dosing, subjects were re-administered the cognitive test and driving examination to assess residual next day effects. Subjects repeated cognitive testing and the driving examination on the morning of Day 3, after administration of the AM study medication, to evaluate the cumulative effects of 3 days of dosing. Subjects were discharged on Day 3 with instructions to return to the clinic on […] to repeat the above procedure with the second and third treatments. A follow-up phone call was conducted 1 week (±3 days) following discharge from the clinic on Day 17 to assess for continued safety. The total duration of study participation was approximately 4 weeks (range 4-8 weeks), including Screening and Follow-up.
The pharmacodynamic measures included simulated driving performance as measured by SDLP using the Cognitive Research Corporation Driving Simulator-MiniSim (CRCDS-MiniSim), the Karolinska Sleepiness Scale, the CogScreen Symbol Digit Coding (SDC) test, a self-perceived safety to drive question, the Visual Analog Scale (VAS) to assess subject's motivation and self-appraisal of their driving performance, and an assessment of the relationship between single-dose plasma drug levels and driving performance. Blood samples for the determination of plasma tolperisone concentrations were drawn prior to each AM dosing on Days 1-3, 8-10, 15-17 and post-driving test (15-30 minutes after the drive) on Days 1, 8, and 15. Blood samples collected post-driving test on Days 3, 10, and 17 were drawn between 1.5 and 2 hours after the start of the drive (approximately 10:30 AM to 11:00 AM). Safety was assessed by the monitoring and recording of adverse events, vital sign measurements, clinical laboratory abnormalities, electrocardiograms (ECGs), pregnancy tests, and physical examinations.
The primary endpoint, SDLP, was analyzed using a mixed-model, repeated measures with fixed effects for sequence, period, and treatment, with repeated observations for subjects. An unstructured covariance structure and Kenward-Roger degrees of freedom was used. […] In addition, pair-wise within subject differences in SDLP greater than 4.4 cm in absolute value (equal to the previously found difference between placebo and 0.05% Blood Alcohol Content (BAC) for the CRCDS) were compared using McNemar's test. Pair-wise within subject differences in SDLP were also tested for symmetry about […] using the maximally selected McNemar test. P-values for significance testing of period and sequence effects are also provided. Pair-wise comparisons (hypothesis tests) of differences in least squares means, and 95% confidence intervals on differences will be provided for:
A 62.1 mile (100 km), monotonous, two-lane highway driving task that includes a secondary visual vigilance task (DA).

[3] = tested on: male and female healthy volunteers; test: Safety: treatment emergent adverse events; format: in vivo, human; conditions: for Treatment Emergent Adverse Events: Cardiac / Treatment Emergent Adverse Events: Gastrointestinal Disorders / Treatment Emergent Adverse Events: General: Sluggishness / Treatment Emergent Adverse Events: Nervous System Disorders, Attention / Treatment Emergent Adverse Events: Nervous System Disorders, Dizziness / Treatment Emergent Adverse Events: Nervous System Disorders, Headache / Treatment Emergent Adverse Events: Nervous System Disorders, Lethargy / Treatment Emergent Adverse Events: Nervous System Disorders, Somnolence / Treatment Emergent Adverse Events: Psychiatric (Insomnia) / Treatment Emergent Adverse Events: Respiratory / Treatment Emergent Adverse Events: Skin: Tolperisone 450 mg, Cyclobenzaprine 30 mg; for number of Treatment Emergent Adverse Events (TEAEs) reported: n per treatment, 3 days of each treatment
Procedure: as §1
Safety analysis was based on the safety population. Safety measures were summarized using descriptive statistics and listed for each subject. MedDRA thesaurus was used to map adverse events verbatim to preferred terms and body systems. WHOdrug thesaurus (Sep. 1, 2016) was used to map prior medication and concomitant medication verbatim to preferred terms and ATC Class.
The Principal Investigator was responsible for the monitoring of subjects' safety and reporting of all adverse events (AEs) and serious adverse events (SAEs). The study personnel reviewed subject-volunteered information related to subjective complaints, and reviewed all laboratory findings and queried the subject specifically for visits requiring hospitalization, procedures, laboratory follow-up, or unscheduled visits to see their physician. Each trial subject was questioned about AEs during treatment with study drug. All AEs were documented in the subject's source documents as well as on the appropriate case report form (CRF). The Investigator assessed and recorded any AE in detail on the AE CRF pages including a description of the event, the date of onset, severity, time course, duration and outcome, relationship of the AE to study drug, and an alternate etiology for events not considered “probably” related to study drug and any actions taken.

[4] = tested on: male and female healthy volunteers; test: Digit Symbol Substitution Test (CogScreen Symbol Digit Coding); format: in vivo, human; conditions: Tolperisone 450 mg, Cyclobenzaprine 30 mg, TID
Procedure: as §1
This test is used to measure attention, visual scanning, working memory, and speed of information processing. SDC is a computer analogue of the conventional symbol-substitution task found in the WAIS-R Digit Symbol subtest and the Symbol Digit Modalities Test. Details of the use of the SDC are provided in the CogScreen® Examiner Manual, CogScreen LLC, 2016. CogScreen SDC endpoints include: • Number of correct responses; • Response Accuracy; and • Standard deviation of reaction time.

Row | SMILES | Karolinska Sleepiness Scale (KSS) ([1]; Day 1 (at Tmax)) | Karolinska Sleepiness Scale (KSS) ([1]; Next Day Residual) | Karolinska Sleepiness Scale (KSS) ([1]; Steady State) | Average speed compared to placebo ([2]; in vivo) | Divided attention: number of Commission Errors compared to placebo ([2]; in vivo) | Divided attention: number of Correct Responses compared to placebo ([2]; in vivo) | Divided attention: number of Omission Errors ([2]; in vivo) | Total Collisions compared to placebo ([2]; in vivo) | SDLP in driving simulation compared to placebo (words, FIG. 1) [2] | Treatment Emergent Adverse Events: Cardiac [3] | Treatment Emergent Adverse Events: Gastrointestinal Disorders [3] | Treatment Emergent Adverse Events: General: Sluggishness [3] | Treatment Emergent Adverse Events: Nervous System Disorders, Attention [3] | Treatment Emergent Adverse Events: Nervous System Disorders, Dizziness [3] | Treatment Emergent Adverse Events: Nervous System Disorders, Headache [3] | Treatment Emergent Adverse Events: Nervous System Disorders, Lethargy [3] | Treatment Emergent Adverse Events: Nervous System Disorders, Somnolence [3] | Treatment Emergent Adverse Events: Psychiatric (Insomnia) [3] | Treatment Emergent Adverse Events: Respiratory [3] | Treatment Emergent Adverse Events: Skin [3] | other results
1 | CN(C)CCC=C1c2ccccc2C=Cc2ccccc21 [Cyclobenzaprine, cyclobenzaprine] | 5.5 | 4.1 | 3.8 | did not differ significantly | non-significant | no significant effect | no increase | no significant increase | significantly impaired effect | 1 | 4 | 1 | 0 | 3 | 0 | 1 | 10 | 1 | 0 | 0 | KSS subjective sleepiness ([1]; Day 1): significantly more subjective sleepiness; KSS subjective sleepiness ([1]; Day 2 or Day 3): did not report feeling more sleepy; Lane Exceedance Maximum and Duration of Exceedance compared to placebo ([2]; Cyc: Days 1 and 2, Tol: any time-point): significantly worse; Lane Exceedance (extent of driving outside of lanes) ([2]; Day 1 (at Tmax)): 3.6; Total Collisions ([2]; Day 1 (at Tmax)): 1.6; Speedings Ratio compared to placebo ([2]; Day 2 and 3): no significant effect; Lane Exceedance (extent of driving outside of lanes) ([2]; Next Day Residual): 3.2; Total Collisions ([2]; Next Day Residual): 0.4; Lane Exceedance (extent of driving outside of lanes) ([2]; Steady State): 2.9; Total Collisions ([2]; Steady State): 0.1; severe AE ([3]; in vivo): one severe AE of dizziness; number of Treatment Emergent Adverse Events (TEAEs) reported [3]: 21; Symbol Digit Coding (SDC) Cognitive Research Version ([4]; Day 1 (at Tmax)): 66.4; Symbol Digit Coding (SDC) Cognitive Research Version ([4]; Next Day Residual): 66.7; Symbol Digit Coding (SDC) Cognitive Research Version ([4]; Steady State): 67.4
2 | Cc1ccc(C(=O)C(C)CN2CCCCC2)cc1 (stereo not drawn) [Tolperisone, tolperisone] | 3.5 | 4.0 | 3.1 | did not differ significantly | non-significant | no significant effect | no increase | no significant increase | equivalent results | 0 | 1 | 0 | 1 | 1 | 1 | 0 | 5 | 0 | 1 | 0 | KSS self-reported sleepiness ([1]; any time-point): no significant increase; Reaction time on the divided attention test [2]: statistically significant improvement; Reaction time on the divided attention test ([2]; listed as Tol): significantly faster; Excessive Ay compared to placebo ([2]; in vivo): no significant increase; Lane Exceedance Maximum and Duration of Exceedance compared to placebo ([2]; in vivo): not seen; Speedings Count compared to placebo ([2]; in vivo): not significantly impacted; Speedings Ratio compared to placebo ([2]; in vivo): no significant effect; hangover effect the morning following nighttime dosing ([2]; in vivo): does not produce a hangover effect; majority of secondary driving endpoint measures compared to placebo ([2]; in vivo): no statistically significant difference; discontinuation due to AE ([3]; following the first day of dosing): one subject due to a moderate AE of a Crohn's Disease flare up; number of Treatment Emergent Adverse Events (TEAEs) reported [3]: 15; Symbol Digit Coding (SDC) Cognitive Research Version ([4]; Day 1 (at Tmax)): 66.6; Symbol Digit Coding (SDC) Cognitive Research Version ([4]; Next Day Residual): 69.3; Symbol Digit Coding (SDC) Cognitive Research Version ([4]; Steady State): 70.1
